Measurements: patent US7897834B2, “Mutation in the rat adenomatous polyposis coli gene within the human mutation hotspot region” (Wisconsin Alumni Research Foundation, priority 2005, dated 2011)

What was measured:
[1] = test system: intestinal tumors in F344 Pirc rats; assay: Effect of celecoxib on intestinal tumor multiplicity in F344 Pirc rats (screening for carcinogenesis inhibitory activity); assay type: in vivo, rat; settings: for Average number of tumors in large intestine / Average number of tumors in small intestine / Average total number of tumors: celecoxib 1200 ppm diet from about 40 days of age, necropsy at about 22 weeks, n=9
Description: Shown in Table 5 is an example of the use of a Pirc rat for screening a compound for carcinogenesis inhibitory activity. The effect of celecoxib on intestinal tumor multiplicity in F344 Pirc rats was tested. At about 40 days of age, Pirc rats backcrossed with F344-Tac and F334 control rats were fed celecoxib at 1200 ppm diet. The rats were killed at about 22 weeks of age (about 150-160 days of age). Necropsy was performed to identify 1-2 mm tumors in the intestines.

[2] = test system: intestinal tumors in F344-Pirc rats; assay: Tumor multiplicities in F344-Pirc rats after somatic ENU treatment; assay type: in vivo, rat; settings: ENU treated, male, age 7 mo
Description: Somatic ENU treatment. ENU was dissolved in 95% EtOH and measured with a spectrophotometer at […] to obtain a final concentration of 1 mg/ml. Either the ENU solution or 95% EtOH was injected intraperitoneally into 13-20 day old rats at 18 or 40 mg/kg of body mass. Treated animals were isolated in a laminar flow hood for at least three days before being returned to normal housing.
Tumor multiplicities were determined for both adenomas and microadenomas (neoplasms less than 0.5 mm in diameter). A significant dependence on gender was observed, with males developing more of both types of tumor in all regions of the intestinal tract. There was also a monotonic increase in tumor multiplicity with age, reaching an average of 14 colonic adenomas in males and 9 in females over eight months of age (Tables 3 and 4).
Shown in Table 3 are the tumor multiplicities in Pirc rats. Colonic microadenoma multiplicities could not be accurately measured without histopathological confirmation and were excluded from these analyses. Neoplasms less than 0.5 mm in size were classified as microadenomas.

[3] = Female Pirc rat, celecoxib 1200 ppm diet vs control diet
[4] = Male Pirc rat, celecoxib 1200 ppm diet vs control diet
[5] = N=3, ENU intraperitoneally at 18 or 40 mg/kg in 13-20 day old rats

SMILES	Average number of tumors in large intestine ([1]; Female Pirc rat)	Average number of tumors in small intestine ([1]; Female Pirc rat)	Average total number of tumors ([1]; Female Pirc rat)	Relative reduction in number of tumors (large intestine) [1, 3]	Relative reduction in number of tumors (total) [1, 3]	Average number of tumors in large intestine ([1]; Male Pirc rat)	Average number of tumors in small intestine ([1]; Male Pirc rat)	Average total number of tumors ([1]; Male Pirc rat)	Relative reduction in number of tumors (large intestine) [1, 4]	Relative reduction in number of tumors (small intestine) [1, 4]	Relative reduction in number of tumors (total) [1, 4]	Colonic polyps, mean ± SD [2, 5]	Lesions in small intestine, mean ± SD: Adenomas [2, 5]	Lesions in small intestine, mean ± SD: Microadenomas ([2]; N=3, neoplasms less than 0.5 mm)
Cc1ccc(-c2cc(C(F)(F)F)nn2-c2ccc(S(N)(=O)=O)cc2)cc1 [Celecoxib, celecoxib]	0.1	0.9	1.0	93%	50%	1.2	1.3	2.6	61%	82%	76%			
CCN(N=O)C(N)=O [ENU, N-ethyl-N-nitrosourea]												79 ± 11	57 ± 13	665 ± 103
